15 compounds from patent US20250282812A1, “ANTIVIRAL NUCLEOSIDE ANALOGUE, AND PHARMACEUTICAL COMPOSITION AND USE THEREOF” (SHANGHAI INSTITUTE OF MATERIA MEDICA , CHINESE ACADEMY OF …, priority 2022, published 2025) can be followed below.

SMILES strings stand for the structures. Values after ≈ are worked out from the molar mass of the structure shown.

The test system of data set [1] is influenza virus (IFV) A/California/07/2009 (H1N1) pdm09 strain. Description: In vitro activity against influenza virus (CPE, CCK8, MDCK cells). In kind it is cell-based. As to conditions: 120 h, read-out: IFV (MDCK) EC50.
Data set [2] deals with respiratory syncytial virus (RSV) A long strain. Description: In vitro activity against respiratory syncytial virus (CPE, CCK8, HEp-2 cells). In kind it is cell-based. Conditions: human respiratory syncytial virus, 120 h, MOI=0.02, 5 days.
Data set [3] relates to SFTSV-Nluc. Put plainly: microbe, parasite or virus in culture. In kind it is cell-based, severe fever with thrombocytopenia syndrome virus (SFTSV). As to conditions: Severe fever with thrombocytopenia syndrome virus, Vero, 48 h; for inhibition at 10 µM: read-out: Inhibition rate (10 μM).
Another data set in a line: in vitro. Conditions: dog.
A short description of data set [4]: Cytotoxicity in HEp-2 cells (CCK8). As to conditions: human.
Data set [5] can be described thus: Stability test of compounds in solutions at different pH values.
Data set [6] can be described thus: Solubility of compounds in water. As to conditions: thermodynamic from solid.
Data set [7] relates to influenza virus Influenza A/PR/8/34 (PR8). Put plainly: In vivo efficacy for influenza virus in mice. The arrangement: species or system Balb/C mice. As to conditions: […]; intragastric once daily Day 0-3; X219 hydrochloride 10, 20 and 30 mpk; favipiravir 200 mpk.
For data set [8], the system named is SFTSV-Nluc. More on the design: species or system A129 mice. Conditions: mouse.
[9] abbreviates: buffered saline solution pH 4.0, 3 h.
Where [10] appears, read: buffered saline solution pH 4.0, 6 h.
The mark [11] stands for this setting: buffered saline solution pH 4.0, 9 h.
The mark [12] stands for this setting: buffered saline solution pH 4.0, 12 h.
[13] abbreviates: buffered saline solution pH 4.0, 15 h.
[14] abbreviates: buffered saline solution pH 4.0, 18 h.
The mark [15] stands for this setting: buffered saline solution pH 4.0, 21 h.
Where [16] appears, read: buffered saline solution pH 4.0, 24 h.
Where [17] appears, read: buffered saline solution pH 6.8, 3 h.
Where [18] appears, read: buffered saline solution pH 6.8, 6 h.
Setting [19] is: buffered saline solution pH 6.8, 9 h.
Where [20] appears, read: buffered saline solution pH 6.8, 12 h.
Setting [21] is: buffered saline solution pH 6.8, 15 h.
Where [22] appears, read: buffered saline solution pH 6.8, 18 h.
[23] abbreviates: buffered saline solution pH 6.8, 21 h.
Setting [24] is: buffered saline solution pH 6.8, 24 h.

For the compound `CC(C)C(=O)OCn1c(=O)ccn([C@@H]2O[C@](F)(COC(=O)C(C)C)[C@@H](O)[C@H]2O)c1=O` [Compound X51], the results for the EC50 (in [1]; in data set [2]; in the data set on SFTSV-Nluc [3]) were less than 370 nM, 2150 nM and 430 nM, respectively. The inhibition – broadly, the drop in the measured response relative to a control, in per cent – at 10 µM in the data set with SFTSV-Nluc [3] was determined as 94.1%. Moreover, in “in vitro”, the CC50 is more than 10000 nM. Further, in data set [4], the CC50 at 5 days is more than 10000 nM. Moreover, the “Content reduction (%)” value in [5] (setting [9]) stood at 1.6%; in [5] (setting [10]) it was 2.5%; in data set [5] (setting [11]), 3.1%; in data set [5] (setting [12]), 3.4%; in data set [5] (setting [13]), 3.9%; in data set [5] (setting [14]), 4.6%. The “Content reduction (%)” value was 5.2% in data set [5] (setting [15]); 5.6% in [5] (setting [16]); 1.1% in [5] (setting [17]); 2.0% in [5] (setting [18]); 3.0% in [5] (setting [19]); 3.8% in [5] (setting [20]). Besides, the “Content reduction (%)” value in data set [5] (setting [21]) came out at 4.7%; in data set [5] (setting [22]), 5.6%; in data set [5] (setting [23]) it was 6.5%; in [5] (setting [24]), 7.4%.
As for `CC(C)C(=O)OC[C@@]1(F)O[C@@H](n2ccc(=O)n(COC(=O)C3CCCCC3)c2=O)[C@H](O)[C@@H]1O` [Compound X55], the EC50 (in general, the concentration that produces a half-maximal response) in data set [1] is less than 370 nM; in data set [2], 1630 nM; in the data set on SFTSV-Nluc [3] it was 1040 nM. Also, in the data set on SFTSV-Nluc [3], the inhibition at 10 µM was found to be 93.6%. Further, the CC50 in the data set “in vitro” was more than 10000 nM. Further, in [4], the CC50 at 5 days was more than 10000 nM. The “Content reduction (%)” value amounted to 2.4% in data set [5] (setting [9]); 4.9% in data set [5] (setting [10]); 6.9% in [5] (setting [11]); 9.0% in data set [5] (setting [12]); 10.8% in [5] (setting [13]); 12.7% in data set [5] (setting [14]). Also, the “Content reduction (%)” value in data set [5] (setting [15]) was found to be 14.2%; in [5] (setting [16]) it was 15.4%; in [5] (setting [17]), 1.0%; in data set [5] (setting [18]) it was 2.3%; in data set [5] (setting [19]) it was 3.3%; in [5] (setting [20]) it was 4.4%. In addition, the “Content reduction (%)” value in data set [5] (setting [21]) is on record as 5.4%; in [5] (setting [22]), 6.4%; in data set [5] (setting [23]), 7.7%.
In the case of `CC(C)C(=O)OC[C@@]1(F)O[C@@H](n2ccc(=O)n(COC(=O)[C@@H](N)C(C)C)c2=O)[C@H](OC(=O)C(C)C)[C@@H]1OC(=O)C(C)C` [Compound X98], the EC50 came out at 500 nM in data set [1], 1420 nM in data set [2] and 1160 nM with SFTSV-Nluc [3]. The inhibition at 10 µM with SFTSV-Nluc [3] came to 95.7%. In addition, the CC50 in “in vitro” was more than 10000 nM. Also, the CC50 at 5 days in data set [4] is more than 10000 nM.
As to `CCCCCCCCCCCC(=O)OCn1c(=O)ccn([C@@H]2O[C@](F)(COC(=O)CCCCCCCCCCC)[C@@H](O)[C@H]2O)c1=O` [Compound X199], the EC50 came to 410 nM in [1], 460 nM in data set [2] and 2790 nM in the data set with SFTSV-Nluc [3]. For the same compound, the inhibition at 10 µM in the data set on SFTSV-Nluc [3] was 96.1%. The same compound had a CC50 in the data set “in vitro” of more than 10000 nM. For the same compound, in data set [4], the CC50 at 5 days was more than 10000 nM.
`CC(C)C(=O)OC[C@@]1(F)O[C@@H](n2ccc(=O)n(COC(=O)c3cccnc3)c2=O)[C@H](OC(=O)C(C)C)[C@@H]1OC(=O)C(C)C` [Compound X206]: the 50% effective concentration (EC50) in [1] is 380 nM; in [2], 2430 nM; in the data set on SFTSV-Nluc [3], 1730 nM. Also, the inhibition at 10 µM in the data set on SFTSV-Nluc [3] came to 93.7%. Moreover, the CC50 in “in vitro” is more than 10000 nM. The compound also displayed a CC50 at 5 days in data set [4] of more than 10000 nM. Moreover, the “Content reduction (%)” value is recorded as 0.01% in data set [5] (setting [9]); 0.03% in data set [5] (setting [10]); 0.02% in [5] (setting [11]); 0.03% in data set [5] (setting [12]); 0.03% in data set [5] (setting [13]); 0.01% in [5] (setting [14]). Moreover, the “Content reduction (%)” value in data set [5] (setting [15]) is on record as 0.03%; in data set [5] (setting [16]) it was 0.0%; in data set [5] (setting [17]), 1.93%; in data set [5] (setting [18]), 3.09%; in [5] (setting [19]), 3.84%; in [5] (setting [20]), 4.06%. Further, the “Content reduction (%)” value in [5] (setting [21]) turned out to be 5.72%; in data set [5] (setting [22]), 6.34%; in data set [5] (setting [23]), 7.28%; in data set [5] (setting [24]), 8.16%.
For `CC(C)C(=O)OC[C@@]1(F)O[C@@H](n2ccc(=O)n(COC(=O)c3cccnc3)c2=O)[C@H](O)[C@@H]1O` [Compound X207], the half-maximal effective concentration (EC50) worked out at 380 nM in data set [1], 4090 nM in [2] and 1890 nM with SFTSV-Nluc [3]. Besides, the inhibition at 10 µM with SFTSV-Nluc [3] was 91.8%. The same compound registered a CC50 in “in vitro” of more than 10000 nM. This compound also returned a CC50 at 5 days in [4] of more than 10000 nM.
Consider `CC(=O)OC[C@@]1(F)O[C@@H](n2ccc(=O)[nH]c2=O)[C@H](OC(C)=O)[C@@H]1OC(C)=O` [Compound X219-1], for which the concentration in solution in data set [6] (solubility at 15 min) came to 150 µg/mL (≈ 386 µM).
On to `CC(C)(C)C(=O)OCn1c(=O)ccn([C@@H]2O[C@](F)(COC(=O)c3cccnc3)[C@@H](O)[C@H]2O)c1=O` [Compound X222], for which the EC50 is less than 370 nM in data set [1], 770 nM in data set [2] and 3300 nM in the data set with SFTSV-Nluc [3]. Moreover, the inhibition at 10 µM in the data set on SFTSV-Nluc [3] worked out at 90.3%. The compound further showed a CC50 in the data set “in vitro” of more than 10000 nM. This compound displayed a CC50 at 5 days in data set [4] of more than 10000 nM.
On to `CC(=O)O[C@H]1[C@H](n2ccc(=O)[nH]c2=O)O[C@](F)(COC(=O)C(C)C)[C@H]1OC(C)=O` [Compound X265-3], for which the solubility – broadly, the dissolved amount per volume that the medium holds – at 15 min in data set [6] amounted to 100 µg/mL (≈ 240 µM).
On to `CC(C)C(=O)OC[C@@]1(F)O[C@@H](n2ccc(=O)n(COC(=O)[C@@H]3CCCN3)c2=O)[C@H](OC(=O)C(C)C)[C@@H]1OC(=O)C(C)C` [Compound X266], for which the half-maximal effective concentration (EC50) in data set [1] was determined as 894 nM; in [2], 1020 nM; in the data set on SFTSV-Nluc [3], 2070 nM. In the data set on SFTSV-Nluc [3], the inhibition at 10 µM is 94.6%. The same compound yielded a CC50 in the data set “in vitro” of more than 10000 nM. Besides, the CC50 at 5 days in data set [4] was more than 10000 nM.
For `CC(C)C(=O)OC[C@@]1(F)O[C@@H](n2ccc(=O)n(COC(=O)[C@@H]3CCCN3C)c2=O)[C@H](OC(=O)C(C)C)[C@@H]1OC(=O)C(C)C` [Compound X267], the EC50 stood at 500 nM in data set [1], 880 nM in data set [2] and 2000 nM with SFTSV-Nluc [3]. Further, the inhibition at 10 µM in the data set on SFTSV-Nluc [3] stood at 94.1%. The compound also had a CC50 in “in vitro” of more than 10000 nM. The compound further had a CC50 at 5 days in [4] of more than 10000 nM.
The compound `Br.CC(=O)OC[C@@]1(F)O[C@@H](n2ccc(=O)n(COC(=O)c3cccnc3)c2=O)[C@H](OC(C)=O)[C@@H]1OC(C)=O` [X219 hydrobromide] came in with a solubility at 15 min in data set [6] of 17600 µg/mL.
For the compound `Br.CC(=O)O[C@H]1[C@H](n2ccc(=O)n(COC(=O)c3cccnc3)c2=O)O[C@](F)(COC(=O)C(C)C)[C@H]1OC(C)=O` [X265 hydrobromide], the solubility at 15 min in data set [6] came to 8050 µg/mL.
With `CC(=O)O[C@H]1[C@H](n2ccc(=O)n(COC(=O)c3cccnc3)c2=O)O[C@](F)(COC(=O)C(C)C)[C@H]1OC(C)=O.Cl` [X265 hydrochloride], in data set [6], the solubility at 15 min turned out to be 19500 µg/mL.
Turning to `NC(=O)c1nc(F)c[nH]c1=O` [favipiravir, reference compound], the “body weight after 4 days of infection compared with the initial body weight” value in data set [7] is on record as “did not change significantly”. Also, the “in vivo fluorescence imaging, fluorescence intensity on ventral and dorsal side” value in the data set with SFTSV-Nluc [8] is reported as “weak fluorescence intensity”.
